Measured values published in BindingDB's records for doi:10.1021/np900435d (University of Florence, 2009).

Experiment: Inhibition of rat intestinal maltase

SMILES	IC50
O[C@H]1[C@H]2[C@H](O)[C@H](O)CN2[C@H](O)C[C@H]1O [uniflorine B]	4 µM
O[C@H]1[C@H](O)[C@@H](O)CN2C[C@@H](O)[C@@H](O)[C@H]12 [(-)-uniflorine A]	12 µM
